Active and inactive are the calls of the source.
What was measured:
[1] = biological target: T1, X-box-binding protein 1 (Homo sapiens, UniProt P17861); assay type: functional, Cricetulus griseus;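 further: confirmatory dose-response counter-screen serving a CHOP assay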
T1 sequence (P17861 whole entry): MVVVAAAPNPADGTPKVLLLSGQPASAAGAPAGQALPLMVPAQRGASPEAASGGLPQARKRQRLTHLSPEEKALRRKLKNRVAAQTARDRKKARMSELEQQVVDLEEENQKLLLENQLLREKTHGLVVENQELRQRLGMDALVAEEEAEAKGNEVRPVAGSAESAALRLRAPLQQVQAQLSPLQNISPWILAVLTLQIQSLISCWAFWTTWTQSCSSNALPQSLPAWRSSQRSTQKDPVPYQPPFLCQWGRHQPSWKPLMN

[2] = biological target: T2, Tyrosine-protein phosphatase non-receptor type 7 (Homo sapiens, UniProt P35236); experiment: inhibitors of human HePTP phosphatase, […], biochemical, absorbance, leukemia target (AID 521); assay type: functional
T2 sequence (P35236 whole entry): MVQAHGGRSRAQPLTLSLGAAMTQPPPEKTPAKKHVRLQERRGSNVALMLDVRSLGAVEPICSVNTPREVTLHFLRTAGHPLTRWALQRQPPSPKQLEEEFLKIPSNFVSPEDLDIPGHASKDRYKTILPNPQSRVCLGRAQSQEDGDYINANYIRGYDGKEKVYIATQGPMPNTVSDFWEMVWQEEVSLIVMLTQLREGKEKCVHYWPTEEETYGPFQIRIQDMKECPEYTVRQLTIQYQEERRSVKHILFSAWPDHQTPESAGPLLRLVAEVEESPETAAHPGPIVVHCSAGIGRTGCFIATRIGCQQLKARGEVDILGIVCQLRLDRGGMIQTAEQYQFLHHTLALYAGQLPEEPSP

[3] = cells
[4] = HEp-2 cell cytotoxicity, dose response, cytotoxicity control for RSV inhibitor project, HTS (AID 2410); assay type: functional; settings: human respiratory syncytial virus
[5] = biological target: T3, fMet-Leu-Phe receptor (Homo sapiens, UniProt P21462); experiment: FPR ligands, dose response (AID 519); assay type: functional
T3 sequence (P21462 whole entry): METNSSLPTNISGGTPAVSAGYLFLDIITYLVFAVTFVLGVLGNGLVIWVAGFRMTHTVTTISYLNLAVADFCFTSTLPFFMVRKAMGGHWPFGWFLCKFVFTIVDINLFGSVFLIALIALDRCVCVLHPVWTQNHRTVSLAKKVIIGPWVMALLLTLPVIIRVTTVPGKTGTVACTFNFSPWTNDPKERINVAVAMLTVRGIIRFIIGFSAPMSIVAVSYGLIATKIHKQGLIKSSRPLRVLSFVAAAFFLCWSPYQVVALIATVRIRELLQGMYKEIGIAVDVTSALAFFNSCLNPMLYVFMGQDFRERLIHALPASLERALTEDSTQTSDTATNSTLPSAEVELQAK

[6] = biological target: T4, Voltage-gated N-type calcium channel alpha-1B subunit/Amyloid beta A4 precursor protein-binding family A member 1 (Homo sapiens, UniProt Q00975+Q02410); assay type: protein assay
T4 sequence (Q00975 whole entry): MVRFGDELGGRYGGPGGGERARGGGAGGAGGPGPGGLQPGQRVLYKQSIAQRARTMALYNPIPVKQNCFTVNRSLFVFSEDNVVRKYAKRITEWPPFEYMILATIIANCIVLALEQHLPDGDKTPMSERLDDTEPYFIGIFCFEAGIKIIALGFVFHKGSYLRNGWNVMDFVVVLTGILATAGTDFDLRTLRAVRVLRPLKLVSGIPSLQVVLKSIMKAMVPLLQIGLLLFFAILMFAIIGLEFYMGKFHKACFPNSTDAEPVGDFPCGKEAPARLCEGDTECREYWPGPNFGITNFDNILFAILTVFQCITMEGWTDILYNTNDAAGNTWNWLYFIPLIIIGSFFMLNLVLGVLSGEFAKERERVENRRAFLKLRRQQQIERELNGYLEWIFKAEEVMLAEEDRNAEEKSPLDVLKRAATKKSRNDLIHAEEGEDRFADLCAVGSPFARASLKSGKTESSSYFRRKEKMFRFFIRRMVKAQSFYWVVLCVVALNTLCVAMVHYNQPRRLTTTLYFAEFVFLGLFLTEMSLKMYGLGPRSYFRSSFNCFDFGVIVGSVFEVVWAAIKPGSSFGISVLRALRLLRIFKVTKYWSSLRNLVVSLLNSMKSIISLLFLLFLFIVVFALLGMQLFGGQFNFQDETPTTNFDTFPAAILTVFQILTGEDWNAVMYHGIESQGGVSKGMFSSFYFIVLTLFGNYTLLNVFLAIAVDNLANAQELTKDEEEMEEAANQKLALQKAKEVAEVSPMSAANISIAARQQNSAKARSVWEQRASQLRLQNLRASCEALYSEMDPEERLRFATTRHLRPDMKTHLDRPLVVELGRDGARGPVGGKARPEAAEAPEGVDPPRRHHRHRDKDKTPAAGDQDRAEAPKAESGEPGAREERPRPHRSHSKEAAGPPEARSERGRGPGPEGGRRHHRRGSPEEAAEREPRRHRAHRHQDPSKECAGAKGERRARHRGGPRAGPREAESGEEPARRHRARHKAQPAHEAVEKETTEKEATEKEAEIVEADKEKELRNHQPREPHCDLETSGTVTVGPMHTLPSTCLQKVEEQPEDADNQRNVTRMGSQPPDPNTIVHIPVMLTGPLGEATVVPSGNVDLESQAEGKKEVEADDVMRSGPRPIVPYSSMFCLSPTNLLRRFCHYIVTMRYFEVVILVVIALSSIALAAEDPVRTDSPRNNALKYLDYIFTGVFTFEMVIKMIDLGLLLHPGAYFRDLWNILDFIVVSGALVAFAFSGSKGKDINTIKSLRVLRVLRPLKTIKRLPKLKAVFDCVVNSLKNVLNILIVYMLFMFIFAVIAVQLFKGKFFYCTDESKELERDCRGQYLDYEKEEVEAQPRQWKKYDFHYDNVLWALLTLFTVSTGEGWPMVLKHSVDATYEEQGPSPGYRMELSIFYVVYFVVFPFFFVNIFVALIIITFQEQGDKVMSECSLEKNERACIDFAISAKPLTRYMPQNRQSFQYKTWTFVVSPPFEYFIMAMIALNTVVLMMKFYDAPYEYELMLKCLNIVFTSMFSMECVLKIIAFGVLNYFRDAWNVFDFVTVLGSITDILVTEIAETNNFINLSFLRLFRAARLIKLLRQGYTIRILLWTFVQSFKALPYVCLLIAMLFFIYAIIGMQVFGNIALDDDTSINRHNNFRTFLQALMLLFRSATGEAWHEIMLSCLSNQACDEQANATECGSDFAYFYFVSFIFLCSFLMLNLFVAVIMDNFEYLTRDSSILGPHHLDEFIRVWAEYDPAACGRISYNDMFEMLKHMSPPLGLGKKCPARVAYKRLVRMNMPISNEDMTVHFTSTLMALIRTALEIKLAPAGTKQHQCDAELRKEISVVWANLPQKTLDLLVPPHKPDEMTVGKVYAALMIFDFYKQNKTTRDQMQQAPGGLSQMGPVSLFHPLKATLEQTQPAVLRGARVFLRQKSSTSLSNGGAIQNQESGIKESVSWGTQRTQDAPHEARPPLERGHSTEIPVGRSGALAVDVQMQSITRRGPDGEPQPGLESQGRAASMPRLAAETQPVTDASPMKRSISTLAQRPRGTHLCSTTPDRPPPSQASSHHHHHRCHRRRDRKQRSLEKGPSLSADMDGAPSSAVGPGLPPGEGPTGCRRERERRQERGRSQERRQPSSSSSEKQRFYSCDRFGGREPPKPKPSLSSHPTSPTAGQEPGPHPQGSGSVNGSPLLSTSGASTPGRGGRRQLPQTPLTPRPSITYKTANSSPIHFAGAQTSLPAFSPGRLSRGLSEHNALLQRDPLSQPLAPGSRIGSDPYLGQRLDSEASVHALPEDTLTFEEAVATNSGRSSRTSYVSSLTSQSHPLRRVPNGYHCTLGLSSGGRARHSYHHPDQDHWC
T4 sequence (Q02410 whole entry): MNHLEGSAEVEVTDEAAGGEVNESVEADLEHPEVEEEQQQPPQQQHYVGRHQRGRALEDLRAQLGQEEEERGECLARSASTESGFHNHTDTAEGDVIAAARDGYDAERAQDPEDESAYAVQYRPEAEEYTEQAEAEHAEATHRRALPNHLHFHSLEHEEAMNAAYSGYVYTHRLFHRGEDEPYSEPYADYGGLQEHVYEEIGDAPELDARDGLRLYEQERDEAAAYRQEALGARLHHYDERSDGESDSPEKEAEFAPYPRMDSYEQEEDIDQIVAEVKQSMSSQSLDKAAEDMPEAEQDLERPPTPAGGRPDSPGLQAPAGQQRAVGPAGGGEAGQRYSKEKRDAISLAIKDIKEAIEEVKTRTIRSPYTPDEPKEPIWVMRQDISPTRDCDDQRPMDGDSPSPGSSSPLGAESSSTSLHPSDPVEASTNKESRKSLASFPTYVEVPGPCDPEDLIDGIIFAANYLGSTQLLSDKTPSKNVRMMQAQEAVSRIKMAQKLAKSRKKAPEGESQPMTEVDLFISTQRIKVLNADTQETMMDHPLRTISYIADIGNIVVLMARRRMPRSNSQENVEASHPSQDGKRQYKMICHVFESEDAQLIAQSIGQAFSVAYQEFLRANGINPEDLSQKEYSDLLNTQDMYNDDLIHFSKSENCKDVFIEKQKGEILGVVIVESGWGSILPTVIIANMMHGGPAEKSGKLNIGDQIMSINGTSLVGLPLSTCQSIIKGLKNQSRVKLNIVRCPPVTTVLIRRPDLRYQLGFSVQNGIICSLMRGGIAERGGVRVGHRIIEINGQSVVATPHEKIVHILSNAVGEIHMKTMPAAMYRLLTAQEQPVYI

[7] = biological target: T4, Voltage-gated N-type calcium channel alpha-1B subunit/Amyloid beta A4 precursor protein-binding family A member 1; assay type: protein assay; remark: listed apart in the source
[8] = biological target: NAD-dependent protein deacylase sirtuin-5, mitochondrial (Homo sapiens, UniProt Q9NXA8); experiment: SIRT5 desuccinylase inhibitors, dose response, biochemical, fluorescence imaging, cherry-pick, set 5 (AID 720591);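 further: desuccinylation of succinyl peptide AMC substrate read as fluorescence after trypsin release; potency of inhibitors that lower fluorescence and may act on trypsin instead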
NAD-dependent protein deacylase sirtuin-5, mitochondrial, sequence (Q9NXA8 whole entry): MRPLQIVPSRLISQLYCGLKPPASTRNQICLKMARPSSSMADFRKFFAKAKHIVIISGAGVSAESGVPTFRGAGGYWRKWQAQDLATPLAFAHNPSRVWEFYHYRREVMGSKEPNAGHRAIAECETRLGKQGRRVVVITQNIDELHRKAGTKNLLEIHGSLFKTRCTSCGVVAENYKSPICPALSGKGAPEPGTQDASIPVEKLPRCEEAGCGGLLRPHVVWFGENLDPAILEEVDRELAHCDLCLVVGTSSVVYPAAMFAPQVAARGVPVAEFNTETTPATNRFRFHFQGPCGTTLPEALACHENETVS

[9] = biological target: T5, Lysosomal acid glucosylceramidase (Homo sapiens, UniProt P04062); experiment: Dose response cell-based high throughput screening assay to identify enhancers of beta-glucosidase activity. [Related pubchem assays: 784 ]; assay type: functional
T5 sequence (P04062 whole entry): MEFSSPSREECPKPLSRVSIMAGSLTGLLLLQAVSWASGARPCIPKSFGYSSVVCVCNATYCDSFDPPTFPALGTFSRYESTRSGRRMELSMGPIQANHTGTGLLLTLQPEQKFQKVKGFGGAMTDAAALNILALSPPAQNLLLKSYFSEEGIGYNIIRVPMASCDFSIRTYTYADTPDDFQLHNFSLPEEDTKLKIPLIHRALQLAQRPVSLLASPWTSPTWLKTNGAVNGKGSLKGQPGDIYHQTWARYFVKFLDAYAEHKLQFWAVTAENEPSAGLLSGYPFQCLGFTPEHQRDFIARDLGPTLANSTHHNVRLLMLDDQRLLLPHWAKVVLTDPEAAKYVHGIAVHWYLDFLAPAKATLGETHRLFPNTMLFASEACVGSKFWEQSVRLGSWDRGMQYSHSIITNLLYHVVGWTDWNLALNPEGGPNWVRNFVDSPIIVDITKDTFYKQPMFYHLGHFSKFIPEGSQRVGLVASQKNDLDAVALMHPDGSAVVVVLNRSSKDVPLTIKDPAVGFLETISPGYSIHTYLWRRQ

[10] = biological target: Peroxisome proliferator-activated receptor gamma/Nuclear receptor coactivator 3 (Homo sapiens, UniProt P37231); assay type: functional;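 further: agonist potency for raising coactivator recruitment to the receptor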
[11] = biological target: Peroxisome proliferator-activated receptor gamma/Nuclear receptor coactivator 2 (Homo sapiens, UniProt P37231); assay type: functional;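 further: agonist potency for raising coactivator recruitment to the receptor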
[12] = biological target: Peroxisome proliferator-activated receptor gamma/Nuclear receptor coactivator 1 (Homo sapiens, UniProt P37231); assay type: functional;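 further: agonist potency as compounds enhance coactivator SRC-1 recruitment to PPARgamma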
[13] = biological target: Cytochrome P450 2C9 (Homo sapiens, UniProt P11712)
[14] = biological target: Cytochrome P450 3A4 (Homo sapiens, UniProt P08684);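 further: CYP3A4 tested as one member of a cytochrome P450 panel screen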
[15] = P. falciparum Dd2 growth inhibitors, dose response, SYBR Green, dry powder samples, set 9 (AID 1159568); assay type: functional, cell-based
[16] = biological target: Protein-tyrosine kinase 2-beta (Homo sapiens, UniProt Q14289);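 further: potency of inhibitors of PYK2 kinase phosphorylation of poly-GT substrate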
[17] = Luminescence Cell-Based Dose Retest to Confirm Inhibitors of Cancer Stem Cells. [Related pubchem assays (depositor defined):AID2717, AID2721]; assay type: functional; settings: Homo sapiens
[18] = A Cell Based Secondary Assay To Explore Cytotoxicity of Compounds that Sensitize Mycobacterium Tuberculosis to Beta-Lactam Antibiotics.; assay type: functional
[19] = biological target: T6, Bcl-2-like protein 10 (Homo sapiens, UniProt Q9HD36); experiment: displacers of TR3 peptide from Bcl-B, primary screen, selectivity assay for Bfl-1 inhibitor project, biochemical, fluorescence polarization, FITC-TR3 peptide (AID 748);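 further: fluorescence polarization from a fluorescein-labelled TR3 peptide binding purified Bcl-B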
T6 sequence (Q9HD36 whole entry): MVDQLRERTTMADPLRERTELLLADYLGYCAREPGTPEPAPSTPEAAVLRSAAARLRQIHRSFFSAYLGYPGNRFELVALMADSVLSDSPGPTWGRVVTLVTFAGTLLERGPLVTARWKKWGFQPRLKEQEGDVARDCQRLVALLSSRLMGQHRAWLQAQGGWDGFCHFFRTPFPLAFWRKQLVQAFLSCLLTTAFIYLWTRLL

[20] = biological target: Ion channel NompC (Danio rerio, UniProt Q7T1G6); experiment: Fluorescence counterscreen assay for TRPML3 agonists: dose response cell-based high-throughput screening assay to identify agonists of the transient receptor potential channel N1 (TRPN1). [Related pubchem assays: 1526, 1424, 1448 ]; assay type: functional
Ion channel NompC, sequence (Q7T1G6 whole entry): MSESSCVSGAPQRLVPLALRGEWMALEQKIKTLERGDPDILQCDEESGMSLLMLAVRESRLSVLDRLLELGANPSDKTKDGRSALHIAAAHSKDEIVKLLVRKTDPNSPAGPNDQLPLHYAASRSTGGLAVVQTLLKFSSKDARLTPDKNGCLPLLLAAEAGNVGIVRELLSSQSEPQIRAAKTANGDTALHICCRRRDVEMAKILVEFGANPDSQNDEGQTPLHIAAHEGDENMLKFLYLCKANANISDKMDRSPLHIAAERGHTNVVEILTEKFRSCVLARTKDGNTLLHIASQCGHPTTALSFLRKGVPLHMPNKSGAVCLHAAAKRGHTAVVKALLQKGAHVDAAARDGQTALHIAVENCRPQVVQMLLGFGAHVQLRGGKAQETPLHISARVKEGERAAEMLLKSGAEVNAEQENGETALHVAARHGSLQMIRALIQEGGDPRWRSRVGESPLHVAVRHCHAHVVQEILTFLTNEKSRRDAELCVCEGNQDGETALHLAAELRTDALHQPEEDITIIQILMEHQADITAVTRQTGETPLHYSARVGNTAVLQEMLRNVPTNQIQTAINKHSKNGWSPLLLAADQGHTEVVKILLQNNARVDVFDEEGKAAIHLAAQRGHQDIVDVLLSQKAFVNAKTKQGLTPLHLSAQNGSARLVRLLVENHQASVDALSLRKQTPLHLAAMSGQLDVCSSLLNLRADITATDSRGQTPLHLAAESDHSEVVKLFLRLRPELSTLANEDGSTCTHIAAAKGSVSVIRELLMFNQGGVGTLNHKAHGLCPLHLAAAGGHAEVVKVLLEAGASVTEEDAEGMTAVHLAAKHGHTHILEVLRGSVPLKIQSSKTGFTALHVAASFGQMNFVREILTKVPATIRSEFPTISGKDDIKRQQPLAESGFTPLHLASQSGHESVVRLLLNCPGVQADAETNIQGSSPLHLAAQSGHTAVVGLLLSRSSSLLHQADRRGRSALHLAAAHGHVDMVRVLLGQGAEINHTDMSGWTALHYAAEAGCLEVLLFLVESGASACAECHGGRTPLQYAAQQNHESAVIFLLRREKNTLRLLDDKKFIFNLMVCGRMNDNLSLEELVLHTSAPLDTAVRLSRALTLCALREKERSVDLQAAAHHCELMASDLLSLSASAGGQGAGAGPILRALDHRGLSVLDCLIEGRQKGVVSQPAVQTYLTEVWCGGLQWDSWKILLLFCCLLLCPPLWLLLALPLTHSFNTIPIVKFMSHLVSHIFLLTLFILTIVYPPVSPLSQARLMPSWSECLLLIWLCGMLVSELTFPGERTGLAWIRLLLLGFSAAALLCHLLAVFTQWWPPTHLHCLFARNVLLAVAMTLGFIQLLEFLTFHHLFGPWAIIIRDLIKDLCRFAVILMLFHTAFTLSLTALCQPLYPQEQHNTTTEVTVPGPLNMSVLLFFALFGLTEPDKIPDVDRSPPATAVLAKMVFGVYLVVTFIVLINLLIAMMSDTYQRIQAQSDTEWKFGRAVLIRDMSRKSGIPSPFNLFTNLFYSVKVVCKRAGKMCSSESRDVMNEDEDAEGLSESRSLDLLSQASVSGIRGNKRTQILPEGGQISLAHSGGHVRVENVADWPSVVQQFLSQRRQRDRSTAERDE

[21] = biological target: T7, Mucolipin-3 (Homo sapiens, UniProt Q8TDD5); experiment: Dose response cell-based high-throughput screening assay for agonists of the transient receptor potential channel ML3 (TRPML3). [Related pubchem assays: 1526, 1424, 1448 ]; assay type: functional
T7 sequence (Q8TDD5 whole entry): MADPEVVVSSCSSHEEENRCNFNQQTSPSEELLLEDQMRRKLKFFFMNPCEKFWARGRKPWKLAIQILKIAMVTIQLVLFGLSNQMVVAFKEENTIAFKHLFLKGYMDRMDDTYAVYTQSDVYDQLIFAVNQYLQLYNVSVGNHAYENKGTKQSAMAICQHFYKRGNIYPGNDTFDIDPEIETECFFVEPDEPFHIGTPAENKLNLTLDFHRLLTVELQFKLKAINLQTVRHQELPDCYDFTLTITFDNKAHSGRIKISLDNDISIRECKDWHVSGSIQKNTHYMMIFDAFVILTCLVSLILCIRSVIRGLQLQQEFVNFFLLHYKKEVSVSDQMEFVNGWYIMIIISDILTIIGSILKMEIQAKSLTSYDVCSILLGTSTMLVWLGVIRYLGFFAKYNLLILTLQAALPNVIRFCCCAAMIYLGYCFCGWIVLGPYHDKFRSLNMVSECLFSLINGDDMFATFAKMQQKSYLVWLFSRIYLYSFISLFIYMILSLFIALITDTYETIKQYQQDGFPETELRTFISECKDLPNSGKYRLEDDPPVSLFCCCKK

[22] = test system: HeLa; experiment: HeLa cell cytotoxicity, dose response, cytotoxicity control, 24 h, cherry-picked samples (AID 504726); assay type: functional, cell-based; settings: Homo sapiens;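 further: potency for cytotoxicity as loss of luminescence signal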
[23] = biological target: T8, Heat shock factor protein 1 (Mus musculus, UniProt P38532); experiment: inhibition of MG132-induced HSE-luciferase signal, confirmation, cell-based, NIH3T3, luminescence, dose retest (AID 2382); assay type: functional;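 further: NIH3T3 fibroblasts with HSF1-driven luciferase reporter stressed by proteasome inhibitor MG132; luminescence from HSF1-driven luciferase expression after 8 hours of MG132 stress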
T8 sequence (P38532 whole entry): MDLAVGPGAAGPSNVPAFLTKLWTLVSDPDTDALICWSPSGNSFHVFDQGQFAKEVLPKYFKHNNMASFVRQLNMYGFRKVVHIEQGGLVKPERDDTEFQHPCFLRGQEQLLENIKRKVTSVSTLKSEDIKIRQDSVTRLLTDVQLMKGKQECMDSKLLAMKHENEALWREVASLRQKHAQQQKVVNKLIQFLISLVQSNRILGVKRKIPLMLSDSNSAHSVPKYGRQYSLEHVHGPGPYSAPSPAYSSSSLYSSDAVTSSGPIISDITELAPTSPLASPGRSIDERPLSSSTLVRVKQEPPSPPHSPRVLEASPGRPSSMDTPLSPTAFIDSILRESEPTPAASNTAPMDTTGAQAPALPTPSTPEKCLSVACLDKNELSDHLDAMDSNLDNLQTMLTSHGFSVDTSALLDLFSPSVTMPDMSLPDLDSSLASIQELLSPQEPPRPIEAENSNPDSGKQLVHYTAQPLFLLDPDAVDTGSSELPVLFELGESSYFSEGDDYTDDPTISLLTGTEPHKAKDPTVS

In the case of CCN(CC)CCOC(=O)c1ccc(N/C=C(/C#N)c2nc(-c3cccc(OC)c3)cs2)cc1, the “Absolute IC50 (XBP1)” value [1] is reported as 10 µM.
For CC1(C)CC(=O)c2cnc(NC(=O)c3ccco3)nc2C1, the IC50 [2] was > 100 µM (not active).
With COC(=O)C1=C(c2ccc(F)cc2F)C[C@@H]2CC[C@H]1N2C(=O)N1CCC(C)CC1 the IC50 [3] was 41.2 µM (active) and the CC50 [4] was 34.2 µM (active).
With COc1ccc(CC(=O)Nc2ccc(-c3nnc(-c4ccc(C)cc4)o3)cc2)cc1 the Ki [5] was > 66.7 µM (inactive), the IC50 [6] was > 50 µM (inactive) and the IC50 [2] was > 100 µM (not active). The IC50 [7] was 14.4 µM (active).
For COc1ccc(C(=O)C2=C(O)C(=O)N(CCCN3CCOCC3)C2c2ccc(OC)cc2)cc1 (centres undefined), the AC50 [8] was > 30 µM (inactive).
With Cc1ccc(C)c(C(=O)C2=C(O)C(=O)N(CCCn3ccnc3)C2c2ccncc2)c1 (centres undefined) the Ki [5] was > 66.7 µM (inactive) and the EC50 [9] was > 50 µM (not active).
In the case of COCc1c(C(=O)OC)nnn1-c1ccccc1, the EC50 [10] is reported as > 79.4 µM (not active), the EC50 [11] is reported as > 79.4 µM (not active) and the EC50 [12] is reported as > 79.4 µM (not active).
In the case of O=C(CSc1nnc2c(n1)[nH]c1ccc(F)cc12)OCc1ccccc1, the AC50 [13] is reported as 0.0708 µM (inconclusive), the AC50 [14] is reported as 8.91 µM (inconclusive) and the EC50 [9] is reported as > 50 µM (not active).
In the case of N#C[C@H]1N[C@H](CO)[C@H]1c1ccc(C#CC2CCCCC2)cc1, the AC50 [15] is reported as 12.9 µM (active).
For Cc1ccc(S(=O)(=O)Nc2cc(C(=O)O)ccc2N2CCCCC2)cc1, the EC50 [9] was > 50 µM (not active).
For CO/C(O)=C1\C(C)=NC2=C(C(=O)CC(c3cccs3)C2)C1c1ccsc1 (centres undefined), the IC50 [16] was > 69.5 µM (not active).
In the case of CNS(=O)(=O)c1ccc(OC)c(-c2nnc3c4ccccc4c(C)nn23)c1, the IC50 [3] is reported as 26.5 µM (active).
For CNC(=O)NC(=O)C(C)OC(=O)c1oc2ccccc2c1CSc1ccc(Cl)cc1 (centres undefined), the “Absolute IC50 (XBP1)” value [1] was 10 µM and the AC50 [17] was 12.3 µM (active).
In the case of COC(=O)c1ccc(NC2c3ncccc3C(=O)N2Cc2cccs2)cc1 (centres undefined), the IC50 [3] is reported as 5.98 µM (active).
With CC(C)NC(=O)c1cccc(Br)c1 the AC50 [8] was > 30 µM (inactive).
For CCN1C(=O)[C@@H]2[C@@H](c3ccc(-c4ccc(Cl)c(Cl)c4)c(OC)c3)N3CCC[C@@]3(C(=O)OC)[C@@H]2C1=O, the CC50 [18] was 30.4 µM (active).
For O=C(Nc1cccnc1)c1ccc(S(=O)(=O)N2CCCCCC2)cc1, the IC50 [19] was > 100 µM (inactive).
In the case of CCOc1cc(S(=O)(=O)N2CCCCCC2)ccc1F, the EC50 [20] is reported as > 29.9 µM (not active) and the EC50 [21] is reported as > 29.9 µM (not active).
In the case of Cc1c(NC(=O)c2cc3nc(-c4ccccc4)cc(C)n3n2)c(=O)n(-c2ccccc2)n1C, the IC50 [19] is reported as 81.2 µM (inactive).
For C[C@H]1CCCCO[C@@H](CN(C)S(=O)(=O)c2ccc(F)cc2)[C@@H](C)CN([C@@H](C)CO)C(=O)c2cc(N(C)C)ccc2O1, the AC50 [15] was 2.54 µM (active).
In the case of O=S(=O)(Nc1ccccc1N1CCCCC1)c1ccc(F)cc1, the EC50 [20] is reported as > 29.9 µM (not active) and the EC50 [21] is reported as 3.27 µM (active).
For Cc1ccnn1CC(=O)N/N=C/c1ccc([N+](=O)[O-])s1, the CC50 [18] was 36 µM (active).
With CC(C)(C)OC(=O)N1CCC[C@H]1c1nnc(SCc2cccc(Cl)c2)o1 the AC50 [8] was > 30 µM (inactive).
In the case of CCOC(=O)c1cnc(SC)nc1Sc1ccc(Cl)cc1Cl, the AC50 [22] is reported as 261 µM (active).
For Cc1cc(C(C)(C)C)oc1C(=O)N(CC(=O)NC1CCCC1)c1c(C)cccc1C, the EC50 [23] was > 195 µM (not active), the EC50 [20] was > 29.9 µM (not active) and the EC50 [21] was 2.54 µM (active).

Source: ChEMBL document CHEMBL1201862, “PubChem BioAssay data set” (2004)
